Experimental findings from patent US8058285B2, “Substituted pyrido [3′, 2′: 4, 5] thieno [3, 2-D] pyrimidines and pyrido [3′, 2′: 4, 5] furo [3, 2-D] pyrimidines used as inhibitors of the PDE-4 and/or the release of TNF-ALPHA” (The Medicines Company (Leipzig) GmbH, priority 2004, dated 2011) are described below.

Structures are written as SMILES. pIC50: −log10 of the molar value. Structures can show the parent of a compound that is named as a salt.

What is called pIC50 is the negative decadic logarithm of the IC50, by convention in mol/L. The low end stands for a high IC50, the high end for a low IC50.

T1 sequence (P27815 342-704): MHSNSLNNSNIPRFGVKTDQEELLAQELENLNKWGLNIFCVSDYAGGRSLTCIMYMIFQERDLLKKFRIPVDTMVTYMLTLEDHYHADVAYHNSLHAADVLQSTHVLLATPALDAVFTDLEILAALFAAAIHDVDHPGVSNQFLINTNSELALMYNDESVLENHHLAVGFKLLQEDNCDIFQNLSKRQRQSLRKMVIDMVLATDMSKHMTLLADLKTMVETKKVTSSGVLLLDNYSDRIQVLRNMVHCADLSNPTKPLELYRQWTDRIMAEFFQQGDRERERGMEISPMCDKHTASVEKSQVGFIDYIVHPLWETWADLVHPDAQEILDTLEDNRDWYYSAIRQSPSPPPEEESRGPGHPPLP

The test has as its target T1, PDE-4A (Homo sapiens, UniProt P27815).
T1 construct: PDE-4A catalytic domain comprising amino acids 342-704; made in house; host or cells: Escherichia coli
Briefly: PDE-4A inhibitory assay (SPA). In kind it is biochemical. An excerpt: Human recombinant PDE-4A catalytic domain comprising amino acids 342-704 was cloned into Escherichia coli and expressed, as described by W. Richter et al., Protein Expression and Purification (2000) 19: 375-383. The other posphodiesterases were either obtained from cell lines of human origin (TPH1 monocytes line for PDE-1, MCF7 for PDE-5) or expressed recombinantly in sf9 insect cells (for PDE-3A, PDE-3B, PDE-7A and PDE-4D) in accordance with an adapted method by Luckow, V. A. et al., in: Recombinant DNA Technology & Applications., (1991) eds. Prokop, Bajpai, R. K. & Ho, C. S., pp 97-152.
The phosphodiesterase activity was determined by the SPA assay as described by the manufacturer Amersham Biosciences and by Horton J. K and Baxendale P. M., Methods Mol. Biol. (1995) 41: 91-105.
The reaction mixtures contained 100 mM Tris-HCl (pH 7.5), 5 mM MgCl2, 3.8 mM 2-mercaptoethanol, and 1 μM cAMP or cGMP as a substrate, the inhibitors at different concentrations and also further components required for the detection of the individual isoenzymes (see below). The reaction was started by adding the enzyme. The operating volume is 100 μl in the wells of a white 96-Well microtiter plate. The test substances were produced as stock solutions in DMSO. The DMSO concentration in the reaction batch was 1% v/v. The PDE activity is not impaired with this DMSO concentration. Having started the reaction by the addition of enzyme, the samples were incubated at 22° C. for 20 min. The reaction was stopped by the addition of SPA bead suspension which contains the zinc sulfate concentration provided according to the manufacturer. Then, the beads are allowed to sediment for 30 min and the plates are analyzed on the luminescence microtiter plate reader Fluostar Optima (BMG Labtechologies).
[^3H]-cAMP was used as a substrate for determining the activity of PDE-2, -3, -4 and -7 and [^3H]-cGMP for determining the activity of PDE-5. The non-specific enzyme activities were determined in the presence of 100 μM rolipram (for PDE-4) and in the presence of 100 μM IBMX (for PDE-3 and -5) and subtracted from the test values. The incubation samples of the PDE-3 assay contain 10 μM rolipram to inhibit possible contaminations by PDE-4. The PDE-2 activity is tested using a SPA assay by Amersham Biosciences in the presence of the PDE-2 activator 5 μM cGMP. […] The selectivity as to PDEs 2, 3 and 5 has a factor of 100 to 10 000.
Compound `CCOc1nc(N2CCNCC2)nc2c1sc1nc(-c3ccc(OC(C)C)cc3)nc(C)c12` [4-Ethoxy-9-methyl-2-piperazin-1-yl-7-(4-iso-propoxy-phenyl)-thieno[2,3-d:4,5-d′]dipyrimidine] had a negative logarithm of the IC50 (pIC50) of 7.30 to 8.70.
The result for `CCOc1nc(N2CCNCC2)nc2c1sc1nc(-c3cccc4ccccc34)nc(C)c12` [4-Ethoxy-9-methyl-7-(1-naphthyl)-2-piperazin-1-yl-thieno[2,3-d:4,5-d′]dipyrimidine] reads 7.30 to 8.70.
Take `CCOc1nc(N2CCNCC2)nc2c1sc1nc(-c3ccc4c(c3)OCO4)cc(C)c12` [4-Ethoxy-9-methyl-7-(3,4-methylenedioxyphenyl)-2-piperazin-1-yl-pyrido[3′,2′:4,5]thieno-[3,2-d]pyrimidine]: the pIC50 is 7.30 to 8.70.
`CCOc1nc(N2CCNCC2)nc2c1sc1nc(-c3ccc(C)cc3)cc(C)c12` [4-Ethoxy-9-methyl-7-(4-methyl-phenyl)-2-(piperazin-1-yl)-pyrido[3′,2′:4,5]thieno[3,2-d]pyrimidine] had a pIC50 of 7.30 to 8.70.
Regarding `CCOc1nc(N2CCNCC2)nc2c1sc1nc(-c3ccc(SC)cc3)cc(C)c12` [4-Ethoxy-9-methyl-7-(4-methylthio-phenyl)-2-piperazin-1-yl-pyrido[3′,2′:4,5]thieno[3,2-d]pyrimidine], the pIC50 was 7.30 to 8.70.
The result for `CCOc1nc(N2CCNCC2)nc2c1sc1nc(-c3ccc(Oc4ccccc4)cc3)nc(C)c12` [4-Ethoxy-9-methyl-7-(4-phenoxy-phenyl)-2-piperazin-1-yl-thieno[2,3-d:4,5-d′]dipyrimidine] reads over 8.70; that for `CCOc1nc(N2CCNCC2)nc2c1sc1nc(N3CCOCC3)cc(C)c12` [4-Ethoxy-9-methyl-7-morpholino-2-(piperazin-1-yl)-pyrido[3′,2′:4,5]thieno[3,2-d]pyrimidine], 7.30 to 8.70.
Turning to `CCOc1nc(N2CCNCC2)nc2c1sc1nc(-c3ccccc3)nc(C)c12` [4-Ethoxy-9-methyl-7-phenyl-2-piperazin-1-yl-thieno[2,3-d:4,5-d′]dipyrimidine], the pIC50 was 7.30 to 8.70.
For `CCOc1nc(N2CCNCC2)nc2c1sc1nc(-c3cccs3)cc(C)c12` [4-Ethoxy-9-methyl-7-thien-2-yl-2-(piperazin-1-yl)-pyrido[3′,2′:4,5]thieno[3,2-d]pyrimidine], the pIC50 is 7.30 to 8.70.
Consider `CCOc1nc(N2CCNCC2)nc2c1sc1nc(N3CCSCC3)cc(C)c12` [4-Ethoxy-9-methyl-7-thiomorpholino-2-(piperazin-1-yl)-pyrido[3′,2′:4,5]thieno[3,2-d]pyrimidine-hydrochloride], for which the pIC50 is 7.30 to 8.70.
The result for `CCOc1nc(N2CCNCC2)nc2c1sc1nc(-c3ccccc3)c(Cc3ccc([N+](=O)[O-])cc3)c(C)c12` [4-Ethoxy-9-methyl-8-(4-nitro-benzyl)-7-phenyl-2-(piperazin-1-yl)-pyrido[3′,2′:4,5]thieno[3,2-d]pyrimidine] reads 7.30 to 8.70.
As for `CCOc1nc(N2CCNCC2)nc2c1sc1nc(-c3ccc(-n4cccc4)cc3)cc(C(F)(F)F)c12` [4-Ethoxy-9-trifluoromethyl-2-piperazin-1-yl-7-(4-(1H-pyrrol-1-yl)-phenyl)-pyrido[3′,2′:4,5]thieno[3,2-d]pyrimidine], the figure is over 8.70; as for `CCOC(=O)c1ccc(-c2cc(C(F)(F)F)c3c(n2)sc2c(OCC)nc(N4CCNCC4)nc23)cc1` [4-[4-Ethoxy-2-(piperazin-1-yl)-9-trifluoromethyl-pyrido[3′,2′:4,5]thieno[3,2-d]pyrimidin-7-yl]-benzoic acid ethyl ester], over 8.70; as for `CCOc1nc(N2CCNCC2)nc2c1sc1nc3c(c(C(F)(F)F)c12)CCc1cc(OC)ccc1-3` [5,6-Dihydro-11-ethoxy-3′-methoxy-9-piperazin-1-yl-7-trifluoromethyl-benzo[h]pyrimido[4′,5′:4,5]thieno[2,3-b]quinoline], over 8.70.
The result for `CCOc1nc(N2CCNCC2)nc2c1sc1nc(-c3ccc4c(c3)OCCO4)cc(C(F)(F)F)c12` [7-(2,3-Dihydrobenzo[b][1,4]dioxin-6-yl)-4-ethoxy-2-(piperazin-1-yl)-9-trifluoromethyl-pyrido[3′,2′:4,5]thieno[3,2-d]pyrimidine] reads over 8.70; that for `CCCc1nc(N2CCNCC2)c2sc3nc(-c4ccc(OC)c(OC)c4)cc(C)c3c2n1` [7-(3,4-Dimethoxy-phenyl)-9-methyl-4-(piperazin-1-yl)-2-n-propyl-pyrido[3′,2′:4,5]thieno[3,2-d]pyrimidine], 7.30 to 8.70; that for `CCOc1nc(N2CCNCC2)nc2c1sc1nc(-c3cccc(N)c3)cc(C(F)(F)F)c12` [7-(3-Amino-phenyl)-4-Ethoxy-2-piperazin-1-yl-9-trifluoromethyl-pyrido[3′,2′:4,5]thieno[3,2-d]pyrimidine], 7.30 to 8.70.
`CCOc1nc(N2CCNCC2)nc2c1sc1nc(-c3cccc(C#N)c3)cc(C(F)(F)F)c12` [7-(3-Cyano-phenyl)-4-ethoxy-2-piperazin-1-yl-9-trifluoromethyl-pyrido[3′,2′:4,5]thieno[3,2-d]pyrimidine] showed a pIC50 of over 8.70.
As to `CCOc1nc(N2CCNCC2)nc2c1sc1nc(-c3ccc(-c4ccc(OC)c(OC)c4)cc3)nc(C)c12` [7-(3′,4′-Dimethoxybiphen-4-yl)-4-ethoxy-9-methyl-2-piperazin-1-yl-thieno[2,3-d:4,5-d′]dipyrimidine], the negative-log IC50 (pIC50) is over 8.70.
The result for `CCOc1nc(N2CCNCC2)nc2c1sc1nc(-c3ccc(N)cc3)cc(C(F)(F)F)c12` [7-(4-Amino-phenyl)-4-ethoxy-2-piperazin-1-yl-9-trifluoromethyl-pyrido[3′,2′:4,5]thieno[3,2-d]pyrimidine] reads 7.30 to 8.70; that for `CCOc1nc(N2CCNCC2)nc2c1sc1nc(-c3ccc(-c4ccccc4)cc3)nc(C)c12` [7-(4-Biphenyl)-4-ethoxy-9-methyl-2-piperazin-1-yl-thieno[2,3-d:4,5-d′]dipyrimidine], 7.30 to 8.70; that for `CCOc1nc(N2CCNCC2)nc2c1sc1nc(-c3ccc(Br)cc3)cc(CC)c12` [7-(4-Bromo-phenyl)-4-ethoxy-9-ethyl-2-(piperazin-1-yl)-pyrido[3′,2′:4,5]thieno[3,2-d]pyrimidine], over 8.70.
`CCOc1nc(N2CCNCC2)nc2c1sc1nc(-c3ccc(Br)cc3)cc(C)c12` [7-(4-Bromo-phenyl)-4-ethoxy-9-methyl-2-(piperazin-1-yl)-pyrido[3′,2′:4,5]thieno[3,2-d]pyrimidine]: the negative-log IC50 (pIC50) was 7.30 to 8.70.
As to `CCOc1nc(N2CCNCC2)nc2c1sc1nc(-c3ccc(Br)cc3)nc(C)c12` [7-(4-Bromo-phenyl)-4-ethoxy-9-methyl-2-piperazin-1-yl-thieno[2,3-d:4,5-d′]dipyrimidine], the negative-log IC50 (pIC50) is 7.30 to 8.70.
In turn, `CCOc1nc(N2CCNCC2)nc2c1sc1nc(-c3ccc(Cl)cc3)cc(CC)c12` [7-(4-Chloro-phenyl)-9-ethyl-4-ethoxy-2-(piperazin-1-yl)-pyrido[3′,2′:4,5]thieno[3,2-d]pyrimidine] had a pIC50 of 7.30 to 8.70.
As for `CCOc1nc(N2CCNCC2)nc2c1sc1nc(-c3ccc(C#N)cc3)cc(C(F)(F)F)c12` [7-(4-Cyano-phenyl)-4-ethoxy-2-piperazin-1-yl-9-trifluoromethyl-pyrido[3′,2′:4,5]thieno[3,2-d]pyrimidine], the figure is 7.30 to 8.70; as for `CCCOc1nc(N2CCNCC2)nc2c1sc1nc(-c3ccc(OCC)cc3)cc(CC)c12` [7-(4-Ethoxy-phenyl)-9-ethyl-2-(piperazin-1-yl)-4-n-propoxy-pyrido[3′,2′:4,5]thieno[3,2-d]pyrimidine], over 8.70.
